The results in this text go back to patent US20260022143A1, “Cyclic Peptide Inhibitors of IL-23” (JANSSEN PHARMACEUTICA NV, priority 2022, published 2026).

Molecules are shown by their SMILES. Starred links: 1 amine or outer side, 2 acyl side, 3 side chain; linkers in the order of their positions; H or OH if unused. Positions of bridges follow the written chain, without caps; N, C: chain ends. Non-standard residues stand in square brackets, D forms with d. Residues, ends and D or L forms follow the SMILES beside them. *: point of attachment. X16 = C[N+](C)(C)Cc1cn(-c2ccc(C[C@H](N[*:1])C(=O)[*:2])cc2)nn1; Me3N+(CH2)2O(CH2)2O(CH2)2CO = C[N+](C)(C)CCOCCOCCC(=O)*; CH2CH2OCH2CH2OCH2CH2NMe3+ = C[N+](C)(C)CCOCCOCC*; Trp(7-Me) = Cc1cccc2c(C[C@H](N)C(=O)O)c[nH]c12; dLys(Me3) = C[N+](C)(C)CCCC[C@@H](N)C(=O)O; X1 = CN(CC[C@H](N[*:1])C(=O)[*:2])[*:3]; 2Nal = N[C@@H](Cc1ccc2ccccc2c1)C(=O)O; AEF = NCCOc1ccc(C[C@H](N)C(=O)O)cc1; X45 = COCC[N+](C)(C)CCc1cn(CC*)nn1; 3Pal = N[C@@H](Cc1cccnc1)C(=O)O; N(CH2CH2)2CF2 = FC1(F)CCN(*)CC1; Lys(Me) = CNCCCC[C@H](N)C(=O)O; Pen = CC(C)(S)[C@H](N)C(=O)O; Thp = NC1(C(=O)O)CCOCC1; Sar = CNCC(=O)O

A short description of data set [1]: Exposed Polar Surface Area (EPSA). In kind it is physicochemical. As to conditions: SFC on Chirex 3014 column; sample 1 mM DMSO stock; read-out: EPSA. Summed up:
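EPSA, in Å^2, is read from SFC retention time through a linear relationship established with eight calibration standards. Separation uses a Chirex 3014 stationary phase, 35 °C, 14 MPa back pressure, and a 5–60% methanol/ammonium formate modifier gradient in CO2.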

The target in data set [2] is T1, IL-23R (Homo sapiens, UniProt Q5VWK5).
T1 construct: host or cells: HEK293
T1 sequence (Q5VWK5 24-629): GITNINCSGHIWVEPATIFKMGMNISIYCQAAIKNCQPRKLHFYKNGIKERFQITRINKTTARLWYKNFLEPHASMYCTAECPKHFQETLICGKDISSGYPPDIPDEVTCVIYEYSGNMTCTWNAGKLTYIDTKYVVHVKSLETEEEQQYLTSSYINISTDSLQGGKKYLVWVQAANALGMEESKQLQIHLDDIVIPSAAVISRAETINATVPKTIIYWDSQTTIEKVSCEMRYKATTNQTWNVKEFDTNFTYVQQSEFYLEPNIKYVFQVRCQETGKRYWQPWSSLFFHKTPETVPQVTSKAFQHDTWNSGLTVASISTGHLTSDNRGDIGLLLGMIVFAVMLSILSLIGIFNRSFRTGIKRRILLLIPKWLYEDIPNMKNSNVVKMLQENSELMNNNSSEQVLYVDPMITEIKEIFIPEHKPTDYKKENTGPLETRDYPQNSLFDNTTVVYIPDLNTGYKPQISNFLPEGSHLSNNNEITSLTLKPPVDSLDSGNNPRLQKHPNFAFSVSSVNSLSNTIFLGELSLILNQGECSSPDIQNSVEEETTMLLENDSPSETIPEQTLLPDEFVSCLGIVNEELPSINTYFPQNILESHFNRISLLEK
The experiment in a line: IL23R Reporter Assay. The format is cell-based. As to conditions: HEK293 cells containing IL-23R, IL-12RP1 and STAT-inducible firefly luciferase reporter; 10 ng/mL IL-23 (EC90); 5 h at 37° C.; read-out: IL23R Reporter Assay. In general terms: In a reporter assay the amount or activity of a reporter protein is the signal.

As to `COCC[N+](C)(C)CCc1cn(CCOc2ccc(C[C@H](NC(=O)[C@H]3NC(=O)[C@H](CCCCN(C)C(C)=O)NC(=O)[C@H](Cc4c[nH]c5c(C)cccc45)NC(=O)[C@H]([C@@H](C)O)NC(=O)[C@H](CC(=O)N(C)C)NC(=O)[C@@H](NC(=O)CCOCCOCC[N+](C)(C)C)C(C)(C)SSC3(C)C)C(=O)N[C@@H](Cc3ccc4ccccc4c3)C(=O)NC3(C(=O)N[C@@H](CCCCN(C)C(C)=O)C(=O)N[C@@H](CC(N)=O)C(=O)N[C@@H](Cc4cccnc4)C(=O)N(C)CC(=O)N(C)C)CCOCC3)cc2)nn1` [compound 285, cPEG3aCO-Pen(3)-N(N(Me)2)-T-7MeW-K(NMeAc)-Pen(3)-Y(OTzlChmPEG)-2Nal-THP-K(NMeAc)-N-3Pya-Sar-CON(Me)2] ({Me3N+(CH2)2O(CH2)2O(CH2)2CO}-[Pen]D(NMe2)T[Trp(7-Me)][Lys(Me)](Ac)[Pen]Y(X45)[2Nal][Thp][Lys(Me)](Ac)N[3Pal][Sar]-NMe2; disulfide 1-6), the EPSA in data set [1] is 148 A^2. Further, in data set [2], the IC50 was found to be 3.8 nM.

`CC(=O)NCCCC[C@@H]1NC(=O)[C@H](Cc2c[nH]c3c(C)cccc23)NC(=O)[C@H]([C@@H](C)O)NC(=O)[C@H](CC(N)=O)NC(=O)[C@@H](NC(=O)CCCc2ccc(I)cc2)C(C)(C)SSC(C)(C)[C@@H](C(=O)N[C@@H](Cc2ccc(OCCCCC[N+](C)(C)C)cc2)C(=O)N[C@@H](Cc2ccc3ccccc3c2)C(=O)NC2(C(=O)N[C@@H](CCCCNC(=O)COc3ccc(-c4ccc(F)cc4F)cc3C(=O)O)C(=O)N[C@@H](CC(N)=O)C(=O)N[C@@H](Cc3cccnc3)C(=O)N(C)CC(N)=O)CCOCC2)NC1=O` [compound 525, IPBCO-Pen(3)-N-T-7MeW-K(Ac)-Pen(3)-TMAPF-2Nal-THP-K(DFN)-N-3Pya-Sar-CONH2]: the EPSA in data set [1] was determined as 195 A^2. Also, in data set [2], the IC50 stood at 51 nM.

With `CC(=O)NCCCC[C@@H]1NC(=O)[C@H](Cc2c[nH]c3c(C)cccc23)NC(=O)[C@H]([C@@H](C)O)NC(=O)[C@H](CC(N)=O)NC(=O)[C@@H](NC(C)=O)C(C)(C)SSC(C)(C)[C@@H](C(=O)N[C@@H](Cc2ccc(OCCN)cc2)C(=O)N[C@@H](Cc2ccc3ccccc3c2)C(=O)NC2(C(=O)N[C@@H](CCC(=O)O)C(=O)N[C@@H](CC(N)=O)C(=O)N[C@@H](Cc3cccnc3)C(=O)N(C)CC(=O)N3CCC(F)(F)CC3)CCOCC2)NC1=O` [compound 136] (Ac-[Pen]NT[Trp(7-Me)]K(Ac)[Pen][AEF][2Nal][Thp]EN[3Pal][Sar]-{N(CH2CH2)2CF2}; disulfide 1-6 (inferred)), the EPSA in data set [1] was determined as 169 A^2. Moreover, in data set [2], the IC50 was found to be 2.6 nM.

Take `CC(=O)NCCCC[C@@H]1NC(=O)[C@H](Cc2c[nH]c3c(C)cccc23)NC(=O)[C@H]([C@@H](C)O)NC(=O)[C@H](CC(N)=O)NC(=O)[C@@H](NC(=O)COc2ccc(-c3ccc(F)cc3F)cc2C(=O)O)C(C)(C)SSC(C)(C)[C@@H](C(=O)N[C@@H](Cc2ccc(OCCCCC[N+](C)(C)C)cc2)C(=O)N[C@@H](Cc2ccc3ccccc3c2)C(=O)NC2(C(=O)N[C@@H](CCCCNC(=O)CCCc3ccc(I)cc3)C(=O)N[C@@H](CC(N)=O)C(=O)N[C@@H](Cc3cccnc3)C(=O)N(C)CC(N)=O)CCOCC2)NC1=O` [compound 524, DFNCO-Pen(3)-N-T-7MeW-K(Ac)-Pen(3)-TMAPF-2Nal-THP-K(IPB)-N-3Pya-Sar-CONH2]: in data set [1], the EPSA is 198 A^2. Besides, the IC50 in data set [2] was 54 nM.

With `CC(=O)N[C@@H]1C(=O)N[C@@H](CC(=O)N(C)C)C(=O)N[C@@H]([C@@H](C)O)C(=O)N[C@@H](Cc2c[nH]c3c(C)cccc23)C(=O)N[C@@H](CCN(C)C(=O)CCOCCOCC[N+](C)(C)C)C(=O)N[C@H](C(=O)N[C@@H](Cc2ccc(OCCN)cc2)C(=O)N[C@@H](Cc2ccc3ccccc3c2)C(=O)NC2(C(=O)N[C@@H](CCN(C)C(=O)CCOCCOCC[N+](C)(C)C)C(=O)N[C@@H](CC(N)=O)C(=O)N[C@@H](Cc3cccnc3)C(=O)N(C)CC(=O)N(C)C)CCOCC2)C(C)(C)SSC1(C)C` [compound 175, MeCO-Pen(3)-N(N(Me)2)-T-7MeW-Dab(NMecPEG3a)-Pen(3)-AEF-2Nal-THP-Dab(NMecPEG3a)-N-3Pya-Sar-CON(Me)2] (Ac-[Pen]D(NMe2)T[Trp(7-Me)][X1](Me3N+(CH2)2O(CH2)2O(CH2)2CO)[Pen][AEF][2Nal][Thp][X1](Me3N+(CH2)2O(CH2)2O(CH2)2CO)N[3Pal][Sar]-NMe2; disulfide 1-6 (inferred)), in data set [1], the EPSA is 140 A^2. Moreover, in data set [2], the IC50 is 6.3 nM.

As to `CC(=O)N(C)CCCC[C@@H]1NC(=O)[C@H](Cc2c[nH]c3c(C)cccc23)NC(=O)[C@H]([C@@H](C)O)NC(=O)[C@H](CC(=O)N(C)C)NC(=O)[C@@H](NC(=O)CCOCCOCC[N+](C)(C)C)C(C)(C)SSC(C)(C)[C@@H](C(=O)N[C@@H](Cc2ccc(-n3cc(C[N+](C)(C)C)nn3)cc2)C(=O)N[C@@H](Cc2ccc3ccccc3c2)C(=O)NC2(C(=O)N[C@@H](CCCCN(C)C(C)=O)C(=O)N[C@@H](CC(N)=O)C(=O)N[C@@H](Cc3cccnc3)C(=O)N(C)CC(=O)N(C)C)CCOCC2)NC1=O` [compound 332, cPEG3aCO-Pen(3)-N(N(Me)2)-T-7MeW-K(NMeAc)-Pen(3)-F(4TzlTMA1)-2Nal-THP-K(NMeAc)-N-3Pya-Sar-CON(Me)2] ({Me3N+(CH2)2O(CH2)2O(CH2)2CO}-[Pen]D(NMe2)T[Trp(7-Me)][Lys(Me)](Ac)[Pen][X16][2Nal][Thp][Lys(Me)](Ac)N[3Pal][Sar]-NMe2; disulfide 1-6), the EPSA in data set [1] was 158 A^2. Besides, the IC50 in data set [2] is 1.2 nM.

Take `CC(=O)NCCCC[C@H](NC(=O)C1(NC(=O)[C@H](Cc2ccc3ccccc3c2)NC(=O)[C@H](Cc2ccc(OCCOCCOCC[N+](C)(C)C)cc2)NC(=O)[C@H]2NC(=O)[C@H](CCCCN(C)C(C)=O)NC(=O)[C@H](Cc3c[nH]c4c(C)cccc34)NC(=O)[C@H]([C@@H](C)O)NC(=O)[C@H](CC(=O)N(C)C)NC(=O)[C@@H](NC(=O)CCOCCOCC[N+](C)(C)C)C(C)(C)SSC2(C)C)CCOCC1)C(=O)N[C@@H](CC(N)=O)C(=O)N[C@@H](Cc1cccnc1)C(=O)N(C)CC(=O)N(C)C` [compound 233, cPEG3aCO-Pen(3)-N(N(Me)2)-T-7MeW-K(NMeAc)-Pen(3)-APEG3F-2Nal-THP-K(Ac)-N-3Pya-Sar-CON(Me)2] ({Me3N+(CH2)2O(CH2)2O(CH2)2CO}-[Pen]D(NMe2)T[Trp(7-Me)][Lys(Me)](Ac)[Pen]Y(CH2CH2OCH2CH2OCH2CH2NMe3+)[2Nal][Thp]K(Ac)N[3Pal][Sar]-NMe2; disulfide 1-6): in data set [1], the EPSA amounted to 141 A^2. Moreover, the IC50 in data set [2] came to 3 nM.

For `CC(=O)NCCCC[C@@H]1NC(=O)[C@H](Cc2c[nH]c3c(C)cccc23)NC(=O)[C@H]([C@@H](C)O)NC(=O)[C@H](CC(N)=O)NC(=O)[C@@H](NC(=O)[C@@H](CCCC[N+](C)(C)C)NC(C)=O)C(C)(C)SSC(C)(C)[C@@H](C(=O)N[C@@H](Cc2ccc(OCCN)cc2)C(=O)N[C@@H](Cc2ccc3ccccc3c2)C(=O)NC2(C(=O)N[C@@H](CCCCNC(C)=O)C(=O)N[C@@H](CC(N)=O)C(=O)N[C@@H](Cc3cccnc3)C(=O)N(C)CC(N)=O)CCOCC2)NC1=O` [compound 447] (Ac-[dLys(Me3)][Pen]NT[Trp(7-Me)]K(Ac)[Pen][AEF][2Nal][Thp]K(Ac)N[3Pal][Sar]-NH2; disulfide 2-7 (inferred)), in data set [1], the EPSA was 171 A^2. The IC50 in data set [2] is 2 nM.

Turning to `CC(=O)N(C)CCCC[C@@H]1NC(=O)[C@H](Cc2c[nH]c3c(C)cccc23)NC(=O)[C@H]([C@@H](C)O)NC(=O)[C@H](CC(=O)N(C)C)NC(=O)[C@@H](NC(=O)CCOCCOCC[N+](C)(C)C)C(C)(C)SSC(C)(C)[C@@H](C(=O)N[C@@H](Cc2ccc(OCCOCCOCC[N+](C)(C)C)cc2)C(=O)N[C@@H](Cc2ccc3ccccc3c2)C(=O)NC2(C(=O)N[C@@H](C)C(=O)N[C@@H](CC(N)=O)C(=O)N[C@@H](Cc3cccnc3)C(=O)N(C)CC(=O)N(C)C)CCOCC2)NC1=O` [compound 466, cPEG3aCO-Pen(3)-N(N(Me)2)-T-7MeW-K(NMeAc)-Pen(3)-APEG3F-2Nal-THP-A-N-3Pya-Sar-CON(Me)2] ({Me3N+(CH2)2O(CH2)2O(CH2)2CO}-[Pen]D(NMe2)T[Trp(7-Me)][Lys(Me)](Ac)[Pen]Y(CH2CH2OCH2CH2OCH2CH2NMe3+)[2Nal][Thp]AN[3Pal][Sar]-NMe2; disulfide 1-6), in data set [1], the EPSA stood at 153 A^2. For the same compound, the IC50 in data set [2] came to 1.8 nM.
